# Laboratory results: patent publication US6469028B1, “Synthesis and use of retinoid compounds having negative hormone and/or anatgonist activities” (Allergan, Inc., priority 1995, dated 2002)
# Assays:
# [1] = test system: ER-RAR-α; assay: Example 10: repression of basal gene activity, ERE-tk-Luc, CV-1 cells; format: cell-based; conditions: 10^−9 to 10^−6 M, 18 hours, single agent
# Excerpt: (§1) More specifically, these procedures employed the ER-RAR chimeric receptor and ERE-tk-Luc reporter system. The ERE-tk-Luc plasmid includes the region −397 to −87 of the estrogen responsive 5′-flanking region of the Xenopus vitellogenin A2 gene, described by Klein-Hitpass, et al. in Cell 46:1053-1061 (1986), ligated upstream of the HSV thymidine kinase promoter and luciferase reporter gene of plasmid tk-Luc. The ER-RAR chimeric receptors consisted of the estrogen receptor DNA binding domain fused to the “D-E-F” domain of the RARs. Those having ordinary skill in the art appreciate this “D-E-F” domain functions to bind retinoid, to provide a retinoid inducible transactivation function and to provide a contact site for heterodimerization with RXR. Thus, luciferase expression in this reporter system was dependent on activation of the transfected chimeric receptor construct.
# (§2) CV-1 cells were co-transfected with the ERE-tk-Luc reporter plasmid and either ER-RAR-α, ER-RAR-β or ER-RAR-γ expression plasmids. The ERE-tk-Luc plasmid contained the estrogen-responsive promoter element of the Xenopus laevis vitellogenin A2 gene and was substantially identical to the reporter plasmid described by Klein-Hitpass et al. in Cell 46:1053 (1986), except that the CAT reporter gene was substituted by a polynucleotide sequence encoding luciferase. The ER-RAR-α, ER-RARβ and ER-RAR-γ chimeric receptor-encoding polynucleotides employed in the co-transfection have been described by Graupner et al. in Biochem. Biophys. Res. Comm. 179:1554 (1991). […] Calcium phosphate transfections were carried out exactly as described in Example 6 using 0.5 μg/well of reporter plasmid and either 0.05 μg, 0.10 μg or 0.2 μg/well of receptor plasmid. […] Cell lysates and luciferase activity measurements were performed as described in Example 6.
# [2] = test system: ER-RAR-β; assay: as above; format: cell-based; conditions: 10^−9 to 10^−6 M, 18 hours, single agent
# Excerpt: as §1, §2
# [3] = test system: ER-RAR-γ; assay: as above; format: cell-based; conditions: 10^−9 to 10^−6 M, 18 hours, single agent
# Excerpt: as §1, §2
# [4] = test system: tissue transglutaminase (TGase) gene in HL-60 cells; assay: TGase activity in HL-60 cells; format: cell-based; conditions: TGase induced by RXR agonists
# Excerpt: This same mechanism can account for the observation that AGN 193109 can repress the activity of the tissue transglutaminase (TGase) gene in HL-60 cells. A retinoid response element consisting of three canonical retinoid half sites spaced by 5 and 7 base pairs has been identified in the transcription control region of this gene. While TGase can be induced by RXR-selective agonists, it is not responsive to RAR-selective agonists. The TGase retinoid response element is bound by an RAR/RXR heterodimer (Davies et al. in Press). […] This AGN 193109 mediated repression can be accounted for by the ability of this negative hormone to sequester NCPs to the RAR component of the heterodimer, thereby repressing the activity of the associated RXR.
# [5] = test system: ECE16-1 cells; assay: Example 17: EGF dependent proliferation of ECE16-1 cells; format: cell-based
# Procedure: ECE16-1 cells were seeded at a density of 1×10^4 cells per cm^2 in complete medium containing DMEM:F12 (3:1), nonessential amino acids, 5% FBS, 5 μg/ml transferring, 2 nM of 3,3′,5 triiodothyronine (thyroid hormone or “T3”), 0.1 nNM cholera toxin, 2 mM L-glutamine, 1.8×10^−4 M adenine and 10 ng/ml EGF. Cells were allowed to attach to plates overnight and then shifted to defined medium containing DMEM:F12 (3:1), 2 mM L-glutamine, nonessential amino acids, 0.1% bovine serum albumin, 1.8×10^−4 M adenine, 5 μg/ml transferring, 2 nM T3, 50 μg/ml ascorbic acid, 100 ug/ml streptomycin, 100 units/ml penicillin and 50 μg/ml gentamicin. Defined medium (DM) was supplemented with 10 ng/ml EGF. […] After three days of treatment, cells were harvested as described by Hembree et al. in Cancer Res. 54:3160 (1994) and cell numbers determined using a COULTER counter.
# [6] = test system: stromelysin-1 expression in primary foreskin keratinocytes; assay: Example 21: stromelysin-1 expression in keratinocytes (RT-PCR); format: cell-based, human; conditions: AGN 191183 10^−7 M or AGN 193109 10^−6 M, 24 hours
# Procedure: Total RNA prepared from mock-treated and retinoid-treated keratinocytes was reverse transcribed and the resulting cDNA was PCR amplified using β-actin or stromelysin-1 oligo primers exactly as described by Nagpal et al. in J. Biol. Chem. 270:923 (1995)), the disclosure of which has been incorporated by reference. A sample (10 μl) from the PCR amplification reaction was removed after every three cycles starting from 18 cycles of PCR amplification. The sample was electrophoresed on a 2% agarose gel and detected after ethidium bromide staining.
# [7] = molecular target: T1, RARα (Homo sapiens, UniProt P10276); assay: Example 8: protease protection analysis; format: biochemical; set-up: host or cells: TNT-coupled reticulocyte lysate in vitro transcription-translation; conditions: ATRA and AGN 193109 100 nM, AGN 193583 1000 nM; trypsin 25, 50 or 100 μg/ml, 10 minutes
# T1 sequence (P10276 1-462): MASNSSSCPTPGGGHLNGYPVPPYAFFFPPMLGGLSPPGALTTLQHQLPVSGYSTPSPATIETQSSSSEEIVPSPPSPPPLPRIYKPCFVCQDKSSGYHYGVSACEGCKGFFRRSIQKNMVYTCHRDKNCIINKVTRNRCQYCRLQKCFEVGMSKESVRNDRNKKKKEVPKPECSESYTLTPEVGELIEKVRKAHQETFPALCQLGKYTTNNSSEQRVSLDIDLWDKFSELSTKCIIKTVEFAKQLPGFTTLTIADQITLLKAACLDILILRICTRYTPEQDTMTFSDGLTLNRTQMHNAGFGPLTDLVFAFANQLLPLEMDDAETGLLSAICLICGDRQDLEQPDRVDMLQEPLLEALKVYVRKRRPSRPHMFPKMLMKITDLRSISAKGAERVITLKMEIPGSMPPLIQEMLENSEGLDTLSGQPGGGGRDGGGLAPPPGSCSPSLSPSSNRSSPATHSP
# Procedure: A plasmid constructed in the vector pGEM3Z (Pharmacia) and containing the RAR-α cDNA (Giguere et al. Nature 330:624 (1987)), was used in connection with the TNT-coupled reticulocyte lysate in vitro transcription-translation system (Promega) to prepare [^35S]-methionine labeled RAR-α. Limited proteolytic digestion of the labeled protein RAR-α was carried out according to the method described by Keidel et al. in Mol. Cell. Biol. 14:287 (1994). […] After ligand binding, 1 μl of appropriately concentrated trypsin was added to the mixture to give final concentrations of 25, 50 or 100 μg/ml. Samples were incubated at room temperature for 10 minutes and trypsin digestion stopped by addition of SDS-sample buffer. Samples were subjected to polyacrylamide gel electrophoresis and autoradiographed according to standard procedures.
smiles,measurement,setting,value
"Cc1ccc(C2=CCC(C)(C)c3ccc(C#Cc4ccc(C(=O)O)cc4)cc32)cc1 [Compound 60, 4-[(5,6-dihydro-5,5-dimethyl-8-(4-methylphenyl)-2-naphthalenyl)ethynyl]benzoic acid]",luciferase reporter activity,[1],substantially unaffected
same,luciferase reporter activity,[2],dose responsive decrease in luciferase reporter activity
same,luciferase reporter activity,[3],dose responsive decrease in luciferase reporter activity
same,TGase activity,[4],able to repress TGase activity induced by RXR agonists
same,EGF mediated proliferation,[5]; 1000 nM AGN 193109 alone,no effect on the EGF mediated proliferation increase
same,antagonism of AGN 191183 mediated growth inhibition,[5]; AGN 193109 10 nM with 10 nM AGN 191183,approximately 50%
same,antagonism of AGN 191183 antiproliferative effect,[5]; ten-fold molar excess of AGN 193109 over 10 nM AGN 191183,completely reversed the antiproliferative effect of AGN 191183
same,stromelysin-1 mRNA expression,[6],down-regulation of stromelysin-1 mRNA levels
same,pattern of trypsin sensitivity of labeled RAR-α after prebinding,[7],a protease protection pattern that was indistinguishable from that produced by prebinding of ATRA
